Experimental data reported in patent US12458021B2, “Microbiocidal derivatives” (SYNGENTA CROP PROTECTION AG, priority 2019, dated 2025).

How the values were obtained:
[1] = test system: Monographella nivalis (Microdochium nivale); assay: Monographella nivalis (Microdochium nivale) / liquid culture (foot rot cereals); assay type: cell-based; settings: PDB potato dextrose broth, 24° C., 4-5 days after application, read-out: control of Monographella nivalis (inhibition of growth, photometric)
Outline: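 Cryostored M. nivalis conidia mixed into potato dextrose broth and added to 96-well plates holding test compound in DMSO. Incubated at 24° C; growth inhibition read photometrically 4-5 days after application.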

[2] = test system: Mycosphaerella graminicola (Septoria tritici); assay: Mycosphaerella graminicola (Septoria tritici) / liquid culture (Septoria blotch); assay type: cell-based; settings: Zymoseptoria tritici, PDB potato dextrose broth, 24° C., 4-5 days after application, read-out: control of Mycosphaerella graminicola (inhibition of growth, photometric)
Outline: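 Conidia from cryogenic storage were mixed into potato dextrose broth and added to test compound in DMSO. Plates were incubated at 24° C, and growth inhibition was read photometrically 4-5 days after application.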

[3] = test system: Botryotinia fuckeliana (Botrytis cinerea); assay: Botryotinia fuckeliana (Botrytis cinerea) / liquid culture (gray mould); assay type: cell-based; settings: Vogels broth, 24° C., 3-4 days after application, read-out: control of Botryotinia fuckeliana (inhibition of growth, photometric)
Protocol: Example B2: Botryotinia fuckeliana (Botrytis cinerea)/Liquid Culture (Gray Mould) Conidia of the fungus from cryogenic storage are directly mixed into nutrient broth (Vogels broth). After placing a (DMSO) solution of test compound into a microtiter plate (96-well format), the nutrient broth containing the fungal spores is added. The test plates are incubated at 24° C. and the inhibition of growth is determined photometrically 3-4 days after application. […] […]-190.

[4] = test system: Glomerella lagenarium (Colletotrichum lagenarium); assay: Glomerella lagenarium (Colletotrichum lagenarium) / liquid culture (anthracnose); assay type: cell-based; settings: Colletotrichum orbiculare, PDB potato dextrose broth, 24° C., 3-4 days after application, read-out: control of Glomerella lagenarium (inhibition of growth, photometric)
Outline: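 Conidia from cryogenic storage suspended in potato dextrose broth and added to DMSO compound solution in plates. Incubated at 24° C; growth inhibition read photometrically 3-4 days after application.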

[5] = test system: Blumeria graminis f. sp. tritici (Erysiphe graminis f. sp. tritici); assay: Blumeria graminis f. sp. tritici / wheat / leaf disc preventative (powdery mildew on wheat); assay type: in vivo; settings: foliar, wheat leaf segments cv. Kanzler, inoculated 1 day after application, assessed 6-8 days after application, read-out: control of Blumeria graminis f. sp. tritici (percent disease control compared to untreated)
Source text: Example B4: Blumeria graminis f. sp. tritici (Erysiphe graminis f. sp. tritici)/Wheat/Leaf Disc Preventative (Powdery Mildew on Wheat) Wheat leaf segments cv. Kanzler are placed on agar in a multiwell plate (24-well format) and sprayed with the formulated test compound diluted in water. The leaf disks are inoculated by shaking powdery mildew infected plants above the test plates 1 day after application. […] […]-192.

[6] = test system: Magnaporthe grisea (Pyricularia oryzae); assay: whole plant or invertebrate; assay type: in vivo; settings: foliar, read-out: control of Magnaporthe grisea (percent disease control compared to untreated)
[7] = test system: Phaeosphaeria nodorum (Septoria nodorum); assay: Phaeosphaeria nodorum (Septoria nodorum) / wheat / leaf disc preventative (glume blotch); assay type: in vivo; settings: Parastagonospora nodorum, foliar, wheat leaf segments cv. Kanzler, inoculated 2 days after application, assessed 5-7 days after application, read-out: control of Phaeosphaeria nodorum (percent disease control compared to untreated)
Protocol: Example B6: Phaeosphaeria nodorum (Septoria nodorum)/Wheat/Leaf Disc Preventative (Glume Blotch) Wheat leaf segments cv. Kanzler are placed on agar in a multiwell plate (24-well format) and sprayed with the formulated test compound diluted in water. The leaf disks are inoculated with a spore suspension of the fungus 2 days after application. The inoculated test leaf disks are incubated at 20° C. and 75% rh under a light regime of 12 h light/12 h darkness in a climate cabinet and the activity of a compound is assessed as percent disease control compared to untreated when an appropriate level of disease damage appears in untreated check leaf disks (5-7 days after application). […] […]-190.

[8] = test system: Alternaria solani; assay: Alternaria solani / tomato / leaf disc (early blight); assay type: in vivo; settings: foliar, tomato leaf disks cv. Baby, inoculated 2 days after application, assessed 5-7 days after application, read-out: control of Alternaria solani (percent disease control compared to untreated)
Protocol: Example B1: Alternaria solani/Tomato/Leaf Disc (Early Blight) Tomato leaf disks cv. Baby are placed on agar in multiwell plates (24-well format) and sprayed with the formulated test compound diluted in water. The leaf disks are inoculated with a spore suspension of the fungus 2 days after application. The inoculated leaf disks are incubated at 23° C./21° C. […] […]-185.

[9] = test system: Puccinia recondita f. sp. tritici; assay: Puccinia recondita f. sp. tritici / wheat / leaf disc preventative (brown rust); assay type: in vivo; settings: foliar, wheat leaf segments cv. Kanzler, inoculated 1 day after application, assessed 7-9 days after application, read-out: control of Puccinia recondita f. sp. tritici, preventative (percent disease control compared to untreated)
Outline: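 Wheat leaf segments (cv. Kanzler) on agar were sprayed with formulated compound, then inoculated with spores 1 day later. Segments were incubated at 19 °C, 75% rh with 12 h light/dark. Percent disease control versus untreated was scored 7–9 days after application.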

[10] = test system: Pyrenophora teres; assay: Pyrenophora teres / barley / leaf disc preventative (net blotch); assay type: in vivo; settings: foliar, barley leaf segments cv. Hasso, inoculated 2 days after application, assessed 5-7 days after application, read-out: control of Pyrenophora teres (disease control compared to untreated)
Protocol: Example B13: Pyrenophora teres/Barley/Leaf Disc Preventative (Net Blotch) Barley leaf segments cv. Hasso are placed on agar in a multiwell plate (24-well format) and sprayed with the formulated test compound diluted in water. The leaf segments are inoculated with a spore suspension of the fungus 2 days after application. The inoculated leaf segments are incubated at 20° C. and 65% rh under a light regime of 12 h light/12 h darkness in a climate cabinet and the activity of a compound is assessed as disease control compared to untreated when an appropriate level of disease damage appears in untreated check leaf segments (5-7 days after application). […] […]-185.

[11] = test system: Mycosphaerella arachidis (Cercospora arachidicola); assay: Mycosphaerella arachidis (Cercospora arachidicola) / liquid culture (early leaf spot); assay type: cell-based; settings: PDB potato dextrose broth, 24° C., 4-5 days after application, read-out: control of Mycosphaerella arachidis (inhibition of growth, photometric)
Protocol: Example B8: Mycosphaerella arachidis (Cercospora arachidicola)/Liquid Culture (Early Leaf Spot) Conidia of the fungus from cryogenic storage are directly mixed into nutrient broth (PDB potato dextrose broth). After placing a (DMSO) solution of test compound into a microtiter plate (96-well format), the nutrient broth containing the fungal spores is added. The test plates are incubated at 24° C. and the inhibition of growth is determined photometrically 4-5 days after application. […] […]-180.

Cc1ccc(Nc2cc(F)cc(F)c2)nc1C(=O)NC1CCC1(C)C (stereo not shown) [Compound P-175, 6-(3,5-difluoroanilino)-N-(2,2-dimethylcyclobutyl)-3-methyl-pyridine-2-carboxamide]
≥ 80%: inhibition at 20 ppm [1] | inhibition at 20 ppm [2] | inhibition at 20 ppm [3] | inhibition at 20 ppm [4]

COc1ccc(N(C(C)=O)c2cc(F)cc(F)c2)nc1C(=O)NC1CCC1(C)C (stereo not shown) [Compound P-189, 6-(N-acetyl-3,5-difluoro-anilino)-N-(2,2-dimethylcyclobutyl)-3-methoxy-pyridine-2-carboxamide]
≥ 80%: pest or weed control at 200 ppm [5] | pest or weed control at 200 ppm [6] | pest or weed control at 200 ppm [7] | inhibition at 20 ppm [1] | inhibition at 20 ppm [2] | inhibition at 20 ppm [3] | inhibition at 20 ppm [4]

COc1ccc(Nc2cc(F)nc(F)c2)nc1C(=O)NC(C)(C)C(C)C [Compound P-173, 6-[(2,6-difluoro-4-pyridyl)amino]-3-methoxy-N-(1,1,2-trimethylpropyl)pyridine-2-carboxamide]
≥ 80%: pest or weed control at 200 ppm [5] | pest or weed control at 200 ppm [8] | pest or weed control at 200 ppm [9] | inhibition at 20 ppm [1] | inhibition at 20 ppm [2] | inhibition at 20 ppm [3] | inhibition at 20 ppm [4]

COc1ccc(NCC(O)CO)nc1C(=O)NCC(C)(C)C (stereo not shown) [Compound P-42, 6-(2,3-dihydroxypropylamino)-N-(2,2-dimethylpropyl)-3-methoxy-pyridine-2-carboxamide]
≥ 80%: inhibition at 20 ppm [3] | inhibition at 20 ppm [4]

COc1ccc(Nc2cc(F)cc(Cl)c2)nc1C(=O)NCC(C)(C)C [Compound P-134, 6-(3-chloro-5-fluoro-anilino)-N-(2,2-dimethylpropyl)-3-methoxy-pyridine-2-carboxamide]
≥ 80%: pest or weed control at 200 ppm [5] | inhibition at 20 ppm [1] | inhibition at 20 ppm [2] | pest or weed control at 200 ppm [10] | inhibition at 20 ppm [3] | inhibition at 20 ppm [4]

COc1ccc(Nc2ccc(C)c(Cl)c2)nc1C(=O)NC(C)(C)C [Compound P-151, N-tert-butyl-6-(3-chloro-4-methyl-anilino)-3-methoxy-pyridine-2-carboxamide]
≥ 80%: pest or weed control at 200 ppm [6] | inhibition at 20 ppm [1] | inhibition at 20 ppm [2] | inhibition at 20 ppm [3] | inhibition at 20 ppm [4]

COc1ccc(Nc2cc(F)cc(F)c2)nc1C(=O)NCC1(C(F)(F)F)CC1 [Compound P-62, 6-(3,5-difluoroanilino)-3-methoxy-N-[[1-(trifluoromethyl)cyclopropyl]methyl]pyridine-2-carboxamide]
≥ 80%: pest or weed control at 200 ppm [5] | pest or weed control at 200 ppm [8] | pest or weed control at 200 ppm [6] | pest or weed control at 200 ppm [9] | pest or weed control at 200 ppm [7] | inhibition at 20 ppm [11] | inhibition at 20 ppm [1] | inhibition at 20 ppm [2] | pest or weed control at 200 ppm [10] | inhibition at 20 ppm [4]

COc1ccc(Nc2cc(F)cc(F)c2)nc1C(=O)NC(C)C(C)(C)C (stereo not shown) [Compound P-170, 6-(3,5-difluoroanilino)-3-methoxy-N-(1,2,2-trimethylpropyl)pyridine-2-carboxamide]
≥ 80%: pest or weed control at 200 ppm [5] | pest or weed control at 200 ppm [8] | inhibition at 20 ppm [1] | inhibition at 20 ppm [2] | inhibition at 20 ppm [3] | inhibition at 20 ppm [4]

CC1(NC(=O)c2cccc(Nc3cc(F)cc(F)c3)n2)CCCC1 [Compound P-119, 6-(3,5-difluoroanilino)-N-(1-methylcyclopentyl)pyridine-2-carboxamide]
≥ 80%: pest or weed control at 200 ppm [6] | pest or weed control at 200 ppm [9] | inhibition at 20 ppm [1] | inhibition at 20 ppm [2] | inhibition at 20 ppm [3] | inhibition at 20 ppm [4]

COc1ccc(Nc2ccc(C)c(Cl)c2)nc1C(=O)NCC(C)(C)C [Compound P-132, 6-(3-chloro-4-methyl-anilino)-N-(2,2-dimethylpropyl)-3-methoxy-pyridine-2-carboxamide]
≥ 80%: inhibition at 20 ppm [1] | inhibition at 20 ppm [2] | inhibition at 20 ppm [3] | inhibition at 20 ppm [4]

COc1ccc(Nc2cc(F)cc(F)c2Cl)nc1C(=O)NC(C)(C)C [Compound P-190, N-tert-butyl-6-(2-chloro-3,5-difluoro-anilino)-3-methoxy-pyridine-2-carboxamide]
≥ 80%: pest or weed control at 200 ppm [9] | pest or weed control at 200 ppm [7] | inhibition at 20 ppm [1] | inhibition at 20 ppm [2] | inhibition at 20 ppm [3] | inhibition at 20 ppm [4]

COc1ccc(Nc2cccc(Cl)c2)nc1C(=O)NC(C)(C)C [Compound P-155, N-tert-butyl-6-(3-chloroanilino)-3-methoxy-pyridine-2-carboxamide]
≥ 80%: pest or weed control at 200 ppm [6] | pest or weed control at 200 ppm [9] | inhibition at 20 ppm [1] | inhibition at 20 ppm [2] | pest or weed control at 200 ppm [10] | inhibition at 20 ppm [3] | inhibition at 20 ppm [4]

COc1ccc(Nc2cc(F)cc(F)c2)nc1C(=O)NCC(C)(C)C [Compound P-22, 6-(3,5-difluoroanilino)-N-(2,2-dimethylpropyl)-3-methoxy-pyridine-2-carboxamide]
≥ 80%: pest or weed control at 200 ppm [5] | pest or weed control at 200 ppm [8] | pest or weed control at 200 ppm [6] | pest or weed control at 200 ppm [9] | pest or weed control at 200 ppm [7] | inhibition at 20 ppm [11] | inhibition at 20 ppm [1] | inhibition at 20 ppm [2] | pest or weed control at 200 ppm [10] | inhibition at 20 ppm [4]

COc1ccc(Nc2ccc(C)c(F)c2)nc1C(=O)NCC(C)(C)C [Compound P-142, N-(2,2-dimethylpropyl)-6-(3-fluoro-4-methyl-anilino)-3-methoxy-pyridine-2-carboxamide]
≥ 80%: inhibition at 20 ppm [3] | inhibition at 20 ppm [4]

CC1(NC(=O)c2cccc(Nc3cc(F)nc(F)c3)n2)CCCC1 [Compound P-120, 6-[(2,6-difluoro-4-pyridyl)amino]-N-(1-methylcyclopentyl)pyridine-2-carboxamide]
≥ 80%: pest or weed control at 200 ppm [6] | pest or weed control at 200 ppm [9] | inhibition at 20 ppm [1] | inhibition at 20 ppm [2] | inhibition at 20 ppm [3] | inhibition at 20 ppm [4]
